Assay results: patent publication US20230095907A1, “STIMULATION OF NEURONAL PLASTICITY” (Institute of Science and Technology Austria, priority 2019, published 2023)

Assays:
[1] = tested on: perineuronal net (PNN); assay: PNN-covered cells (WFA staining) in primary somatosensory cortex after repeated KXA-anaesthesia; format: in vivo, C57BL/6J mice; conditions: female compared with male
Protocol: (§1) C57BL/6J mice were intraperitoneal (i.p.) injected in the morning. Deep anaesthesia was confirmed based on the following parameters: • 1. Absence of the toe pinch reflex around 10 minutes after induction. • 2. Decrease in the respiratory frequency. • 3. No responses to external stimuli. • 4. Flaccid paralysis. • 5. Absence of whiskers movement.
(§2) Solution was always freshly prepared to avoid pH fluctuations.
(§3) For histological analysis, animals were shortly anesthetized with isoflurane (Zoetis) and secured to the perfusion plate. The chest was open to expose the hearth. […] The animals were initially perfused with 20 mL of phosphate-buffered saline (PBS) with heparin (100 mg/L, Sigma H0878), followed by 20 mL of 4% (w/v) paraformaldehyde (PFA, Sigma P6148) in PBS using a peristaltic pump (Behr PLP 380, speed: 25 rpm). The animals were decapitated, the retina and brain explanted, and post-fixed in 4% (w/v) PFA/PBS for 30 minutes and overnight (16h), respectively. […]
(§4) Perineuronal net density per mm^3. In each image, neurons surrounded by perineuronal nets were counted using the spot detection function of Imaris (Oxford Instruments). […]
(§5) Perineuronal net density per mm^3: Each data point represents the count of neurons surrounded by PNN in one image per animal (biological replicates). For all following analyses, cell densities were calculated as a percentage with the respective control set to 100%. […]

[2] = tested on: perineuronal net (PNN); assay: PNN-covered cells (WFA staining) in primary visual cortex (V1); format: in vivo, C57BL/6J mice; conditions: female compared with male
Protocol: as §1, §2, §3, §4, §5

[3] = tested on: parvalbumin-positive neurons, microglia, astrocytes; assay: Cell density, apoptosis and astrogliosis in S1 (parvalbumin, Iba1, Caspase3, GFAP immunostaining)
Protocol: For histological analysis, animals were shortly anesthetized with isoflurane (Zoetis) and secured to the perfusion plate. The chest was open to expose the hearth. […] The animals were initially perfused with 20 mL of phosphate-buffered saline (PBS) with heparin (100 mg/L, Sigma H0878), followed by 20 mL of 4% (w/v) paraformaldehyde (PFA, Sigma P6148) in PBS using a peristaltic pump (Behr PLP 380, speed: 25 rpm). The animals were decapitated, the retina and brain explanted, and post-fixed in 4% (w/v) PFA/PBS for 30 minutes and overnight (16h), respectively. Then, the tissues were washed in PBS and stored at 4° C. with 0.025% (w/v) sodium azide (VWR 786-299). For cryoprotection, the tissue was transferred in 30% (w/v) sucrose (Sigma 84097) in PBS and incubated overnight at 4° C. To increase antibody permeability, the brain slices were frozen over dry-ice and thawed at room temperature for three cycles.
P-values were adjusted with the “p.adjust” function and the method set to “BH”.

[4] = tested on: gamma oscillations in the brain; assay: Power spectrum analysis of brain oscillations after repeated ketamine exposure; format: in vivo
[5] = ketamine; cited from earlier work
[6] = biological target: purinergic receptor P2Y12 (Mus musculus, UniProt Q9CPV9); conditions: 3×, S1
Chain of purinergic receptor P2Y12 (Q9CPV9 whole entry): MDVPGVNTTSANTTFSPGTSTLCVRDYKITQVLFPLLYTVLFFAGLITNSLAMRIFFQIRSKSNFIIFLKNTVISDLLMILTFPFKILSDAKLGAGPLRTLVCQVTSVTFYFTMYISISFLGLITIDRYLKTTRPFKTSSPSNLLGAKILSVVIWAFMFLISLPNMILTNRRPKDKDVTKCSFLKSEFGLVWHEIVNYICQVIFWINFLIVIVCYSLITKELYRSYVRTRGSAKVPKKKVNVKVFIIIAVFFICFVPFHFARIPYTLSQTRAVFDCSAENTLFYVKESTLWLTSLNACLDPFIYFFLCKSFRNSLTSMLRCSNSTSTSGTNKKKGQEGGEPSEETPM
Protocol: Clopidogrel: Clopidogrel (Tocris 2490) was dissolved in dimethyl sulfoxide (DMSO, Sigma, D8418) and diluted 1:4 in phosphate buffer saline (PBS) before the injection.
Perineuronal net density per mm^3. In each image, neurons surrounded by perineuronal nets were counted using the spot detection function of Imaris (Oxford Instruments). The total cell count was normalised to the entire image volume and data are represented as number of cells surrounded by perineuronal nets per mm^3.
Perineuronal net density per mm^3: Each data point represents the count of neurons surrounded by PNN in one image per animal (biological replicates). For all following analyses, cell densities were calculated as a percentage with the respective control set to 100%. Linear regression was used to predict cell density per mm^3 (as absolute values or as percentages compared to the respective control) by experimental condition in cases where more than two levels were involved. Then, a two-sided T-test was then used to investigate differences between experimental conditions in cases where only two levels were involved. P-values were adjusted with the “p.adjust” function and the method set to “BH”.

Row | SMILES | sex difference in the action (PNN loss) of repeated exposure [1] | sex difference in PNN recovery rate [2] | apoptosis ([3]; repeated ketamine exposure) | parvalbumin-positive neuron density ([3]; repeated ketamine exposure) | astrogliosis (GFAP) ([3]; repeated ketamine exposure (6×KXA)) | 60 Hz frequency gamma oscillations in the brain [4] | half-life [5] | loss of PNN-covered cells ([6]; 50 mg/Kg clopidogrel i.p. 5 minutes before KXA) | microglia interaction with the PNN structure ([6]; clopidogrel i.p. 5 minutes before KXA)
1 | CNC1(c2ccccc2Cl)CCCCC1=O (stereo not drawn) [ketamine, 2-(2-chlorophenyl)-2-(methylamino)cyclohexan-1-one] | accelerated in females | recovery rate was similar | does not induce apoptosis | does not induce apoptosis or alteration in parvalbumin-positive neuron density | nor induce astrogliosis | increase in 60 Hz frequency gamma oscillations | 2 h |  | 
2 | COC(=O)[C@H](c1ccccc1Cl)N1CCc2sccc2C1 [clopidogrel] |  |  |  |  |  |  |  | prevented ketamine-mediated loss of PNN-covered cells | microglia showed less interaction with the PNN structure
